For three molecules, melting point results are on record in patent US7205306B2, “Substituted pyrazinones, pyridines and pyrimidines as corticotropin releasing factor ligands” (Bristol-Myers Squibb Pharma Company, priority 2001, dated 2007).

As to `COC[C@@H](C)n1cc(Cl)nc(N2CCCc3cc(OC)cc(Br)c32)c1=O` [Example 553, 3-(8-Bromo-6-methoxy-1,2,3,4-tetrahydroquinoline)-5-chloro-1-[(1R)-2-methoxy-1-methylethyl]-2(1H)-pyrazinone], the melting point (as a rule, the temperature, or range, at which the solid turns liquid) was determined as 146 °C.
The result for `CC[C@H](COC)n1cc(Br)nc(N2CCCc3cc(OC)cc(Br)c32)c1=O` [Example 554, 5-Bromo-3-(8-bromo-6-methoxy-1,2,3,4-tetrahydroquinoline)-1-[(1R)-1-(methoxymethyl)propyl]-2(1H)-pyrazinone] reads 102 to 103 °C; that for `CC[C@@H](COC)n1cc(Cl)nc(N2CCCc3cc(OC)cc(Br)c32)c1=O` [Example 555, 3-(8-Bromo-6-methoxy-1,2,3,4-tetrahydroquinoline)-5-chloro-1-[(1S)-1-(methoxymethyl)propyl]-2(1H)-pyrazinone], 93 to 94 °C.
